Source: patent US12245993B2, “Vitamin K2 microcapsule, preparation method thereof and use thereof in manufacture of medicament for preventing or treating cardiovascular and cerebrovascular diseases” (Xiamen Kingdomway Biotech. Co., Ltd., priority 2020, dated 2025)

Experiment: Determination of stability of vitamin K2 microcapsules (light, oxygen, high temperature)
Assay type: physicochemical
Description: (2) Test Method The samples and the reference samples were respectively put into sealed colorless and transparent vials, and placed under the conditions of 4500Lx light intensity irradiation, oxygen filling (25° C.), and stored at 60° C. (incubator) for 15 days, respectively; and they were subjected to sampling on Day 0, Day 5, Day 10, Day 15, and VK2 contents thereof were determined by USP method. The effects of light, oxygen, and temperature conditions on the labeled content (%) of VK2 were investigated.

Labeled content of VK2 (%) (60° C. (incubator), Day 0): 100.0% | Labeled content of VK2 (%) (60° C. (incubator), Day 5): 96.2% | Labeled content of VK2 (%) (60° C. (incubator), Day 10): 94.8% | Labeled content of VK2 (%) (60° C. (incubator), Day 15): 90.4% | Labeled content of VK2 (%) (4500 Lx illumination, Day 0): 100.0% | Labeled content of VK2 (%) (4500 Lx illumination, Day 5): 89.2% | Labeled content of VK2 (%) (4500 Lx illumination, Day 10): 74.3% | Labeled content of VK2 (%) (4500 Lx illumination, Day 15): 60.3% | Labeled content of VK2 (%) (Oxygen filling (25° C.), Day 0): 100.0% | Labeled content of VK2 (%) (Oxygen filling (25° C.), Day 5): 93.5% | Labeled content of VK2 (%) (Oxygen filling (25° C.), Day 10): 89.4% | Labeled content of VK2 (%) (Oxygen filling (25° C.), Day 15): 81.2%
Substance: Vitamin K2 [Reference sample 4]
